Test results as given in patent publication US12290512B2, “Gel composition with an anaesthetic effect of short and long term duration” (priority 2018, dated 2025).

Test: anaesthetic effect (onset and duration) of gel composition administered through the urethra
Type: in vivo
Conditions: gel compositions comprising the anaesthetic

Compound: CCCCN1CCCCC1C(=O)Nc1c(C)cccc1C (centres unmarked) [bupivacaine]
- duration of action: up to 7 hours
- onset of action: 7 to 10 min

Compound: CCN(CC)CC(=O)Nc1c(C)cccc1C [lidocaine]
- duration of action: 15 to 20 min

Compound: CCCN1CCCC[C@H]1C(=O)Nc1c(C)cccc1C [ropivacaine]
- duration of action: 120 to 600 min
- onset of action: 10 to 20 min
